Measurements as given in patent US20250082674A1, “METHODS OF TREATING COPPER METABOLISM-ASSOCIATED DISEASES OR DISORDERS” (priority 2021, published 2025).
Where two headings read alike, the source gives them in different places.

Columns and labels:
[1] = From the text: Adverse events were reported by the patient (or, when appropriate, by a caregiver, surrogate, or the patient's legally authorized representative). The Investigator and any qualified designees were responsible for detecting, documenting, and recording events that meet the definition of an AE or SAE and remain responsible for following up AEs that were serious, considered related to the study intervention or study procedures, or that caused the patient to discontinue the study.
Acute worsening of neurologic symptoms typically within 6 months of start of therapy is a known complication associated with chelation therapy for WD. […] Neurologic AESI for Study 301 were considered as all AEs in the Medical Dictionary for Regulatory Activities (MedDRA) System Organ Class (SOC) “Nervous system disorders” or any other AE judged by the Investigator as an AESI.

[2] = Study 301: adverse events in participants who switched from SoC to BC-TTM in the Extension Period; details: SoC Weeks 0-48 (N = 70), BC-TTM Weeks 49-96 (N = 61)
[3] = Hematological AEs, Primary Evaluation Period, Safety Set, BC-TTM N = 137, SoC N = 70
[4] = Primary Evaluation Period, 48 Weeks, BC-TTM N = 137, SoC N = 70
[5] = Primary Evaluation Period, Safety Set, BC-TTM N = 137, SoC N = 70
[6] = Study 301, Primary Evaluation Period

With Bis-choline tetrathiomolybdate [BC-TTM] the “Anemia, E events” value [1, 3] was 7, the “Anemia, N participants” value [1, 3] was 6 and the “Anemia, participants (%)” value [1, 3] was 4.4%. For the same substance, the “Leukopenia, E events” value [1, 3] was 3, the “Leukopenia, N participants” value [1, 3] was 2 and the “Leukopenia, participants (%)” value [1, 3] was 1.5%. The “Neutropenia, E events” value [1, 3] was 6, the “Neutropenia, N participants” value [1, 3] was 6 and the “Neutropenia, participants (%)” value [1, 3] was 4.4%. For the same substance, the “Neutrophil count decreased, E events” value [1, 3] was 4, the “Neutrophil count decreased, N participants” value [1, 3] was 2 and the “Neutrophil count decreased, participants (%)” value [1, 3] was 1.5%. The “Thrombocytopenia, E events” value [1, 3] was 2, the “Thrombocytopenia, N participants” value [1, 3] was 1 and the “Thrombocytopenia, participants (%)” value [1, 3] was 0.7%. The “Alanine aminotransferase increased, N participants” value [1, 4] was 20, the “Alanine aminotransferase increased, participants (%)” value [1, 4] was 14.6% and the “Aspartate aminotransferase increased, N participants” value [1, 4] was 4. The “Aspartate aminotransferase increased, participants (%)” value [1, 4] was 2.9%, the “Ear and labyrinth disorders, N participants” value [1, 4] was 7 and the “Ear and labyrinth disorders, participants (%)” value [1, 4] was 5.1%. For the same substance, the “Fatigue, N participants” value [1, 4] was 13, the “Fatigue, participants (%)” value [1, 4] was 9.5% and the “Gamma-glutamyltransferase increased, N participants” value [1, 4] was 3. The “Gamma-glutamyltransferase increased, participants (%)” value [1, 4] was 2.2%, the “Hepatic enzyme increased, N participants” value [1, 4] was 3 and the “Hepatic enzyme increased, participants (%)” value [1, 4] was 2.2%. For the same substance, the “Hepatobiliary disorders, N participants” value [1, 4] was 9, the “Hepatobiliary disorders, participants (%)” value [1, 4] was 6.6% and the “Investigations, N participants” value [1, 4] was 46. For the same substance, the “Investigations, participants (%)” value [1, 4] was 33.6%, the “Nervous system disorders, N participants” value [1, 4] was 47 and the “Nervous system disorders, participants (%)” value [1, 4] was 34.3%. The “Neutrophil count decreased, N participants” value [1, 4] was 2, the “Neutrophil count decreased, participants (%)” value [1, 4] was 1.5% and the “Pruritus, N participants” value [1, 4] was 5. For the same substance, the “Pruritus, participants (%)” value [1, 4] was 3.6%, the “Psychiatric disorders, N participants” value [1, 4] was 26 and the “Psychiatric disorders, participants (%)” value [1, 4] was 19.0%. For the same substance, the “Pyrexia, N participants” value [1, 4] was 8, the “Pyrexia, participants (%)” value [1, 4] was 5.8% and the “Rash, N participants” value [1, 4] was 9. The “Rash, participants (%)” value [1, 4] was 6.6%, the “Skin and subcutaneous tissue disorders, N participants” value [1, 4] was 30 and the “Skin and subcutaneous tissue disorders, participants (%)” value [1, 4] was 21.9%. The “ALT increased, E events” value [1, 5] was 25, the “ALT increased, N participants” value [1, 5] was 20 and the “ALT increased, participants (%)” value [1, 5] was 14.6%. For the same substance, the “AST increased, E events” value [1, 5] was 4, the “AST increased, N participants” value [1, 5] was 4 and the “AST increased, participants (%)” value [1, 5] was 2.9%. For the same substance, the “GGT increased, E events” value [1, 5] was 3, the “GGT increased, N participants” value [1, 5] was 3 and the “GGT increased, participants (%)” value [1, 5] was 2.2%. For the same substance, the “Hepatic enzyme increased, E events” value [1, 5] was 5, the “Hepatic enzyme increased, N participants” value [1, 5] was 3 and the “Hepatic enzyme increased, participants (%)” value [1, 5] was 2.2%. The “Hepatic function abnormal, E events” value [1, 5] was 3, the “Hepatic function abnormal, N participants” value [1, 5] was 3 and the “Hepatic function abnormal, participants (%)” value [1, 5] was 2.2%. For the same substance, the “Hyperbilirubinemia, E events” value [1, 5] was 1, the “Hyperbilirubinemia, N participants” value [1, 5] was 1 and the “Hyperbilirubinemia, participants (%)” value [1, 5] was 0.7%. The “Hypertransaminasemia, E events” value [1, 5] was 4, the “Hypertransaminasemia, N participants” value [1, 5] was 2 and the “Hypertransaminasemia, participants (%)” value [1, 5] was 1.5%. For the same substance, the “Jaundice, E events” value [1, 5] was 1, the “Jaundice, N participants” value [1, 5] was 1 and the “Jaundice, participants (%)” value [1, 5] was 0.7%. For the same substance, the “LFT abnormal, E events” value [1, 5] was 2, the “LFT abnormal, N participants” value [1, 5] was 2 and the “LFT abnormal, participants (%)” value [1, 5] was 1.5%. For the same substance, the “LFT increased, E events” value [1, 5] was 4, the “LFT increased, N participants” value [1, 5] was 4 and the “LFT increased, participants (%)” value [1, 5] was 2.9%. For the same substance, the “Liver disorder, E events” value [1, 5] was 1, the “Liver disorder, N participants” value [1, 5] was 1 and the “Liver disorder, participants (%)” value [1, 5] was 0.7%. The “ALT increased as share of treatment-emergent adverse events (25/577)” value ([1]; Study 301) was 4.3%, the “incidence of AE ALT increased” value ([1]; Study 301) was 14.6% and the “incidence of SAEs, Nervous system disorders” value ([1]; Study 301) was 4.4%. The “incidence of hematologic AEs, BC-TTM versus SoC” value ([1]; Study 301) was “similar”, the “participants with Grade 4 AEs, Nervous system disorders” value ([1]; Study 301) was 1 participant and the “participants with Grade 5 AEs, Nervous system disorders” value ([1]; Study 301) was 1 participant. The “participants with highest severity Grade 1 AEs, Nervous system disorders” value ([1]; Study 301) was 24.1%, the “participants with highest severity Grade 2 AEs, Nervous system disorders” value ([1]; Study 301) was 13.9% and the “participants with neurologic AESI in the SOC Psychiatric disorders” value ([1]; Study 301) was 3.6%. For the same substance, the “AEs in SOC Ear and labyrinth disorders” value [1, 6] was 5.1%, the “AEs in SOC Hepatobiliary disorders” value [1, 6] was 6.6% and the “AEs in SOC Investigations” value [1, 6] was 33.6%. The “AEs in SOC Psychiatric disorders” value [1, 6] was 19.0%, the “AEs in SOC Skin and subcutaneous tissue disorders” value [1, 6] was 21.9% and the “incidence of AEs in the SOC Nervous system disorders” value [1, 6] was 34.3%. For the same substance, the incidence of headache [1, 6] was 8.0%, the incidence of tremor [1, 6] was 7.3% and the “participants discontinued due to AE of anemia (Grade 1)” value ([1]; clinical program for BC-TTM) was 1 participant. For the same substance, the “participants discontinued due to AE of neutropenia (Grade 2)” value ([1]; clinical program for BC-TTM) was 1 participant, the overall safety profile ([1]; participants with WD) was “acceptable safety profile and is generally well-tolerated” and the “Musculoskeletal and connective tissue disorders, E events” value [2] was 7. For the same substance, the “Musculoskeletal and connective tissue disorders, N participants” value [2] was 7 and the “Musculoskeletal and connective tissue disorders, participants (%)” value [2] was 11.5%.
